The term EC50 denotes the concentration giving half of the maximal effect. Usually inhibition stands for the drop in the measured response relative to a control, in per cent.

We go through 5 molecules from article PMC4965013, “Open Source Drug Discovery with the Malaria Box Compound Collection for Neglected Diseases and Beyond” (PLoS Pathogens, 2016).

The test system of one data set is P. falciparum Dd2. The experiment in a line: Malaria Sybr Green I Fluorescence assay Dd2 Horrocks. Particulars: Plasmodium falciparum, DD2, 48 h; read-out: P. falciparum Dd2 asexual blood stage EC50 Horrocks. The class given is cell-based. A digest of the protocol: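 Dd2 asexual parasites started at 2% trophozoite-stage parasitaemia and 2% hematocrit; growth read by SYBR Green I fluorescence after 48 h. IC50 values taken from log dose-response curves.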

Data set [1] deals with Schistosoma mansoni schistosomula (somules). The experiment in a line: S. mansoni somules phenotypic screen Caffrey.
The test system of data set [2] is B. bigemina (Argentine strain). Nature of the data set: B. bigemina fluorescence-based growth assay. In kind it is cell-based. Conditions: Babesia bigemina.
The next data set concerns Chromera velia. The experiment in a line: Chromera velia flagellation motility assay. Particulars: 1µM.
Another data set relates to Trypanosoma cruzi. Nature of the data set: T. cruzi Scynexis. In kind it is cell-based.
Data set [3] relates to Trypanosoma brucei brucei 427. The experiment in a line: T. brucei brucei Scynexis. The class given is cell-based.
For data set [4], the system named is Strongyloides stercoralis. The experiment in a line: Strongyloides stercoralis Scynexis. The class given is cell-based. Particulars: 10µM. The protocol: Supplement ppat.1005763.s002.xlsx, sheet "S1 Table Heat Map" | column: Strongyloides stercoralis % dead at 10µM Scynexis
Data set [5] relates to Mycobacterium tuberculosis mc26220 non-replicating. The experiment in a line: microbe, parasite or virus in culture. The class given is cell-based.
For data set [6], the system named is Leishmania donovani axenic amastigotes. The experiment in a line: L. donovani axenic amastigotes Scynexis. The class given is cell-based.
The test system of data set [7] is NCI60 human tumor cell lines. Nature of the data set: NCI60 5-dose (dose-response) assay. In kind it is cell-based.
A further data set has as its system CYP3A4 mRNA. Nature of the data set: MPCC LMA-Luminex CYP3A4 mRNA. In kind it is cell-based, human. Particulars: 10µM.
The test system of another data set is CYP2C9 mRNA. The experiment in a line: MPCC LMA-Luminex CYP2C9 mRNA. In kind it is cell-based, human. Particulars: 10µM.
In another data set the test system is CYP2D6 mRNA. Nature of the data set: MPCC LMA-Luminex CYP2D6 mRNA. The class given is cell-based, human. Particulars: 10µM.
The test system of the next data set is CYP2D8 mRNA. The experiment in a line: MPCC LMA-Luminex CYP2D8 mRNA. The class given is cell-based, human. Particulars: 10µM.
The subject of another data set is CYP2C19 mRNA. The experiment in a line: MPCC LMA-Luminex CYP2C19 mRNA. The class given is cell-based, human. Particulars: 10µM.
The subject of a further data set is MAOB mRNA. Nature of the data set: MPCC LMA-Luminex MAOB mRNA. In kind it is cell-based, human. Conditions: 10µM.
A further data set relates to MAOA mRNA. The experiment in a line: MPCC LMA-Luminex MAOA mRNA. The class given is cell-based, human. Particulars: 10µM.
The next data set has as its system CYP1A2 mRNA. The experiment in a line: MPCC LMA-Luminex CYP1A2 mRNA. Conditions: 10µM. In kind it is cell-based, human.
For the next data set, the system named is Toxoplasma gondii TS-4. Particulars: ref [84]; read-out: Toxoplasma gondi TS4 EC50; cited from earlier work.
Where [8] appears, read: mean over cell lines of one experiment, listed as 766523/2.

Where “and” joins values, the source holds several entries; their conditions need not be identical. Equal entries are not always repeated.

As to `CCN(CC)c1cc(C)c2cc(NC(=O)c3cccc(OC)c3)ccc2n1` [MMV000498], the EC50 was found to be 2.77 µM in the data set with P. falciparum Dd2 and 8.99 µM in data set [2]. Besides, the “S. mansoni newly transformed schistosomula, visual tox scale, 0 = none, 4=most damaged” value in [1] (24 h at 2.5µM) stood at 2; in [1] (72 h at 2.5µM) it was 0. In the data set with Chromera velia, the “Chromera velia 24 hr Flagellation (control standardized to ++; 0 = no flagella)” value is on record as “++”. Further, the “Chromera velia 72 hr Flagellation (control standardized to ++; 0 = no flagella)” value in the data set on Chromera velia is listed as “+++”. The inhibition at 5 µM was 98% with Trypanosoma cruzi, 74% in [3] and -65% in data set [6]. In addition, the “Strongyloides stercoralis % dead” value in data set [4] was 25%. The inhibition at 25 µM in data set [5] came to 20%.

In the case of `CCN1CCN(c2cc(C)c3cc(NC(=O)c4ccc(OC)c(OC)c4)ccc3n2)CC1` [MMV019074], the figures for the EC50 (in the data set with P. falciparum Dd2; in data set [2]) were 1.85 µM and 7.92 µM, respectively. Also, the results for the “S. mansoni newly transformed schistosomula, visual tox scale, 0 = none, 4=most damaged” value in data set [1] (24 h at 2.5µM) and in data set [1] (72 h at 2.5µM) were 1 and 0, respectively. For the same molecule, the “Chromera velia 24 hr Flagellation (control standardized to ++; 0 = no flagella)” value in the data set on Chromera velia is “+++”. The “Chromera velia 72 hr Flagellation (control standardized to ++; 0 = no flagella)” value in the data set on Chromera velia was “+++”. Moreover, the figures for the inhibition at 5 µM (in the data set with Trypanosoma cruzi; in [3]; in [6]) were 13%, 45% and -34%, respectively. In data set [5], the inhibition at 25 µM was found to be 13%. Besides, the “Notes (NCI60 5-dose activity pattern)” value in data set [7] was “Specific lines sensitive”. Moreover, the “MGLI50 = Mean Growth Log I50” value in [7] (5-dose, mean over NCI60 panel) is given as -4.91. Further, the “_MID Log10GI50” value in data set [7] (setting [8]) is -4.8 Molar and -5.03 Molar. In data set [7] (setting [8]), the “_MID Log10LC50” value was -4.0 Molar and -4.04 Molar. Further, in data set [7] (setting [8]), the “_MID Log10TGI” value is -4.05 Molar and -4.25 Molar.

On to `CCOC(=O)c1cnc2ccc(OC)cc2c1NCc1ccccc1` [MMV665813], for which the “Human hepatocyte CYP3A4 mRNA induction, 0.0 normal” value with CYP3A4 mRNA is -0.06. Further, the EC50 with P. falciparum Dd2 was 4.89 µM; in data set [2], 1 µM. In addition, the “S. mansoni newly transformed schistosomula, visual tox scale, 0 = none, 4=most damaged” value in data set [1] (24 h at 2.5µM) and in data set [1] (72 h at 2.5µM) was 1 each time. Besides, the “Human hepatocyte CYP2C9 mRNA induction, 0.0 normal” value in the data set with CYP2C9 mRNA was -0.17. Moreover, the “Human hepatocyte CYP2D6 mRNA induction, 0.0 normal” value in the data set on CYP2D6 mRNA is -1.27. The “Chromera velia 24 hr Flagellation (control standardized to ++; 0 = no flagella)” value with Chromera velia is on record as “+++”. Moreover, in the data set with Chromera velia, the “Chromera velia 72 hr Flagellation (control standardized to ++; 0 = no flagella)” value is reported as “++”. The inhibition at 5 µM in the data set on Trypanosoma cruzi was -49%; in [3], -25%; in data set [6], 52%. The “Human hepatocyte CYP2D8 mRNA induction, 0.0 normal” value in the data set with CYP2D8 mRNA is listed as -0.79. Besides, the “Human hepatocyte CYP2C19 mRNA induction, 0.0 normal” value in the data set on CYP2C19 mRNA is -0.35. Also, the inhibition at 25 µM in data set [5] was found to be 23%. Besides, the “Human hepatocyte MAOB mRNA induction, 0.0 normal” value in the data set with MAOB mRNA was -1.05. Besides, the “Human hepatocyte MAOA mRNA induction, 0.0 normal” value in the data set on MAOA mRNA is reported as -0.36. In addition, in the data set with CYP1A2 mRNA, the “Human hepatocyte CYP1A2 mRNA induction, 0.0 normal” value was -0.15.

On to `COc1cc2cc(C(=O)Nc3ccccc3)c(N)nc2cc1OC` [MMV006767], for which the “Human hepatocyte CYP3A4 mRNA induction, 0.0 normal” value in the data set with CYP3A4 mRNA turned out to be 0.0216. Moreover, the EC50 with P. falciparum Dd2 was determined as 0.884 µM; in [2], 21.1 µM. For the same molecule, the figures for the “S. mansoni newly transformed schistosomula, visual tox scale, 0 = none, 4=most damaged” value in data set [1] (24 h at 2.5µM) and in data set [1] (72 h at 2.5µM) were 0 and 2, respectively. In addition, the “Human hepatocyte CYP2C9 mRNA induction, 0.0 normal” value in the data set on CYP2C9 mRNA is -0.09. In the data set with CYP2D6 mRNA, the “Human hepatocyte CYP2D6 mRNA induction, 0.0 normal” value is listed as -0.21. In addition, the “Chromera velia 24 hr Flagellation (control standardized to ++; 0 = no flagella)” value in the data set with Chromera velia is “+++”. In addition, the “Chromera velia 72 hr Flagellation (control standardized to ++; 0 = no flagella)” value in the data set with Chromera velia was “++”. Besides, the inhibition at 5 µM is 86% with Trypanosoma cruzi, -54% in data set [3] and -49% in data set [6]. Further, in the data set with CYP2D8 mRNA, the “Human hepatocyte CYP2D8 mRNA induction, 0.0 normal” value is given as -0.10. In addition, the “Human hepatocyte CYP2C19 mRNA induction, 0.0 normal” value in the data set with CYP2C19 mRNA is recorded as -0.39. Also, the inhibition at 25 µM in data set [5] is 1.39%. Also, the “Human hepatocyte MAOB mRNA induction, 0.0 normal” value with MAOB mRNA is -0.22. Moreover, in the data set with MAOA mRNA, the “Human hepatocyte MAOA mRNA induction, 0.0 normal” value turned out to be 0.23. Moreover, the “Human hepatocyte CYP1A2 mRNA induction, 0.0 normal” value with CYP1A2 mRNA is -0.09.

As for `COc1ccc(C(=O)Nc2ccc3nc(N4CCCCC4)cc(C)c3c2)cc1OC` [MMV019758], the EC50 with P. falciparum Dd2 was 0.614 µM; in data set [2], 0.46 µM; in the data set with Toxoplasma gondii TS-4, 25.7 µM. The “S. mansoni newly transformed schistosomula, visual tox scale, 0 = none, 4=most damaged” value in data set [1] (24 h at 2.5µM) and in [1] (72 h at 2.5µM) was 0 each time. Besides, the “Chromera velia 24 hr Flagellation (control standardized to ++; 0 = no flagella)” value with Chromera velia is on record as “+”. Also, the “Chromera velia 72 hr Flagellation (control standardized to ++; 0 = no flagella)” value in the data set with Chromera velia is given as “++”. In addition, the inhibition at 5 µM with Trypanosoma cruzi is 71%; in data set [3], -11%; in [6], -50%. In addition, the inhibition at 25 µM in [5] is 24%.
